Reference: ChEMBL document CHEMBL1201862, “PubChem BioAssay data set” (2004)
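Tested at 5 concentrations; 48 h exposure; 96-well plates; endpoints linearly interpolated, else capped at highest concentration. Abbreviation: GI50, concentration required for 50% inhibition of growth.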 The source made the active and inactive calls. No stated cut-off is given here; in the data, active = GI50 up to about 1.1 µM and inactive = higher.

Tests used:
Assay in all cases: DTP human tumour cell line panel, 48 h
[1] = test system: T47D
[2] = test system: CCRF-CEM
[3] = test system: 786-0
[4] = test system: HT-29
[5] = test system: K562
[6] = test system: OVCAR-5
[7] = test system: RXF 393
[8] = test system: SF-295
[9] = test system: A549
[10] = test system: SK-MEL-2
[11] = test system: UO-31
[12] = test system: SNB-19
[13] = test system: TK-10
[14] = test system: EKVX
[15] = test system: KM12
[16] = test system: NCI-H460
[17] = test system: NCI-H226
[18] = test system: LOX IMVI
[19] = test system: DU-145
[20] = test system: SF-539

CCN(CC)C(=O)CCN1CC1
GI50 [1]: > 10 µM (inactive) | GI50 [2]: > 10 µM (inactive) | GI50 [3]: > 10 µM (inactive) | GI50 [4]: > 10 µM (inactive) | GI50 [5]: > 10 µM (inactive) | GI50 [6]: > 10 µM (inactive) | GI50 [7]: > 10 µM (inactive) | GI50 [8]: > 10 µM (inactive) | GI50 [9]: > 10 µM (inactive) | GI50 [10]: > 10 µM (inactive) | GI50 [11]: > 10 µM (inactive) | GI50 [12]: > 10 µM (inactive) | GI50 [13]: > 10 µM (inactive) | GI50 [14]: > 10 µM (inactive) | GI50 [15]: > 10 µM (inactive) | GI50 [16]: > 10 µM (inactive) | GI50 [17]: > 10 µM (inactive) | GI50 [18]: > 10 µM (inactive) | GI50 [19]: > 10 µM (inactive) | GI50 [20]: > 10 µM (inactive)

O=S(=O)(Cc1nc2ccccc2s1)c1nc2ccccc2s1
GI50 [1]: 21.3 µM (inactive) | GI50 [2]: 5.5 µM (inactive) | GI50 [3]: 17.4 µM (inactive) | GI50 [4]: 18.2 µM (inactive) | GI50 [5]: 12.6 µM (inactive) | GI50 [6]: 20 µM (inactive) | GI50 [7]: 22.5 µM (inactive) | GI50 [8]: 26.2 µM (inactive) | GI50 [9]: 29.3 µM (inactive) | GI50 [10]: 17.4 µM (inactive) | GI50 [11]: 16.7 µM (inactive) | GI50 [12]: 21.5 µM (inactive) | GI50 [13]: 20 µM (inactive) | GI50 [14]: 18.5 µM (inactive) | GI50 [15]: 18.2 µM (inactive) | GI50 [16]: 38 µM (inactive) | GI50 [17]: 26.5 µM (inactive) | GI50 [18]: 10 µM (inactive) | GI50 [19]: 17.9 µM (inactive) | GI50 [20]: 21.2 µM (inactive)

O=C(NC1C(=O)NC(CCc2ccccc2)NC1=O)OCc1ccccc1 (stereo unspecified)
GI50 [1]: > 100 µM (inactive) | GI50 [2]: > 100 µM (inactive) | GI50 [3]: > 100 µM (inactive) | GI50 [4]: > 100 µM (inactive) | GI50 [5]: > 100 µM (inactive) | GI50 [6]: > 100 µM (inactive) | GI50 [7]: > 100 µM (inactive) | GI50 [8]: > 100 µM (inactive) | GI50 [9]: > 100 µM (inactive) | GI50 [11]: > 100 µM (inactive) | GI50 [12]: > 100 µM (inactive) | GI50 [13]: > 100 µM (inactive) | GI50 [14]: > 100 µM (inactive) | GI50 [15]: > 100 µM (inactive) | GI50 [16]: > 100 µM (inactive) | GI50 [17]: > 100 µM (inactive) | GI50 [18]: > 100 µM (inactive) | GI50 [19]: > 100 µM (inactive) | GI50 [20]: > 100 µM (inactive)

CC(=O)O[C@H]1CC[C@H]2[C@@H]3CCC4=C/C(=N/OCCN(C)C)CC[C@]4(C)[C@H]3CC[C@]12C
GI50 [1]: 5.81 µM (inactive) | GI50 [2]: 2.52 µM (inactive) | GI50 [3]: 8.17 µM (inactive) | GI50 [4]: 2.06 µM (inactive) | GI50 [5]: 2.11 µM (inactive) | GI50 [6]: 16.9 µM (inactive) | GI50 [7]: 12 µM (inactive) | GI50 [8]: 5.41 µM (inactive) | GI50 [9]: 12 µM (inactive) | GI50 [10]: 11 µM (inactive) | GI50 [11]: 14.9 µM (inactive) | GI50 [12]: 7.59 µM (inactive) | GI50 [13]: 11.3 µM (inactive) | GI50 [14]: 14.4 µM (inactive) | GI50 [15]: 5.61 µM (inactive) | GI50 [16]: 8.22 µM (inactive) | GI50 [17]: 3.8 µM (inactive) | GI50 [18]: 3.16 µM (inactive) | GI50 [19]: 16.1 µM (inactive) | GI50 [20]: 2.52 µM (inactive)

CC1CC(C)(O)CC(C(O)CC2CC(=O)NC(=O)C2)C1=O (stereo unspecified) [RESACTIN A]
GI50 [1]: 0.0431 µM (active) | GI50 [2]: < 0.014 µM (active) | GI50 [3]: 0.0252 µM (active) | GI50 [4]: 0.037 µM (active) | GI50 [5]: 0.0309 µM (active) | GI50 [6]: 0.059 µM (active) | GI50 [7]: 0.0344 µM (active) | GI50 [8]: < 0.0149 µM (active) | GI50 [9]: 0.0513 µM (active) | GI50 [10]: 0.0585 µM (active) | GI50 [11]: 0.055 µM (active) | GI50 [12]: 0.0303 µM (active) | GI50 [13]: 0.187 µM (active) | GI50 [14]: 0.0505 µM (active) | GI50 [15]: 0.0327 µM (active) | GI50 [16]: 0.0385 µM (active) | GI50 [17]: 0.0689 µM (active) | GI50 [18]: 0.0283 µM (active) | GI50 [19]: 0.0461 µM (active) | GI50 [20]: 0.0197 µM (active)

CN1CCN(c2ccc3c(c2)NCC(=O)N3)CC1
GI50 [1]: > 100 µM (inactive) | GI50 [2]: > 100 µM (inactive) | GI50 [3]: > 100 µM (inactive) | GI50 [4]: > 100 µM (inactive) | GI50 [5]: > 100 µM (inactive) | GI50 [6]: > 100 µM (inactive) | GI50 [7]: > 100 µM (inactive) | GI50 [8]: > 100 µM (inactive) | GI50 [9]: > 100 µM (inactive) | GI50 [10]: > 100 µM (inactive) | GI50 [11]: > 100 µM (inactive) | GI50 [12]: > 100 µM (inactive) | GI50 [13]: > 100 µM (inactive) | GI50 [14]: 96.4 µM (inactive) | GI50 [15]: > 100 µM (inactive) | GI50 [16]: > 100 µM (inactive) | GI50 [17]: > 100 µM (inactive) | GI50 [18]: > 100 µM (inactive) | GI50 [19]: > 100 µM (inactive)

CCOC(=O)Cn1nnc2cc(Nc3c(C)[n+]([O-])c4cc(F)c(OCC)cc4[n+]3[O-])ccc21
GI50 [1]: > 100 µM (inactive) | GI50 [2]: > 100 µM (inactive) | GI50 [3]: 43.4 µM (inactive) | GI50 [4]: > 100 µM (inactive) | GI50 [5]: 7.16 µM (inactive) | GI50 [6]: > 100 µM (inactive) | GI50 [7]: 31.8 µM (inactive) | GI50 [8]: 38.3 µM (inactive) | GI50 [10]: 32.4 µM (inactive) | GI50 [11]: > 100 µM (inactive) | GI50 [13]: 24.9 µM (inactive) | GI50 [14]: > 100 µM (inactive) | GI50 [15]: > 100 µM (inactive) | GI50 [16]: > 100 µM (inactive) | GI50 [17]: > 100 µM (inactive) | GI50 [18]: > 100 µM (inactive) | GI50 [19]: > 100 µM (inactive) | GI50 [20]: > 100 µM (inactive)
